ChEMBL document CHEMBL3593175, “Bicyclic [3.3.0]-Octahydrocyclopenta[c]pyrrolo Antagonists of Retinol Binding Protein 4: Potential Treatment of Atrophic Age-Related Macular Degeneration and Stargardt Disease” (J Med Chem, 2015)

Assays:
[1] = target: T1, Retinol-binding protein 4 (Homo sapiens, UniProt P02753); test: Displacement of [3H]-retinol from RBP4 (unknown origin) by scintillation proximity assay
[2] = target: T1, Retinol-binding protein 4; test: Inhibition of retinol-induced interaction of bacterially expressed MBP-tagged RBP4 (unknown origin) with Eu3+ cryptate labeled TTR by HTRF assay

SMILES | IC50 [1] | IC50 [2]
Cc1cc(-c2nnn[nH]2)nc(N2C[C@H]3C[C@@H](c4ccccc4C(F)(F)F)C[C@H]3C2)n1 |  | 175 nM
Cc1ccc(N2C[C@H]3C[C@@H](c4ccccc4C(F)(F)F)C[C@H]3C2)nc1C(=O)O | 584 nM | 4910 nM
O=C(O)c1cncc(N2C[C@H]3C[C@@H](c4ccccc4C(F)(F)F)C[C@H]3C2)c1 | > 3000 nM | 
O=C(O)c1cccc(N2C[C@H]3C[C@@H](c4ccccc4C(F)(F)F)C[C@H]3C2)c1 | 83.2 nM | 3960 nM
Cc1ccc(C(=O)O)c(N2C[C@H]3C[C@@H](c4ccccc4C(F)(F)F)C[C@H]3C2)n1 | 68.4 nM | 2000 nM
O=C(O)c1cncc(N2C[C@H]3C[C@@H](c4ccccc4C(F)(F)F)C[C@H]3C2)n1 | 166 nM | 
O=C(O)c1cnnc(N2C[C@H]3C[C@@H](c4ccccc4C(F)(F)F)C[C@H]3C2)c1 | 23 nM | 437 nM
Cc1sc(N2C[C@H]3C[C@@H](c4ccccc4C(F)(F)F)C[C@H]3C2)nc1C(=O)O | 29.3 nM | 495 nM

Other lines, results leading:

IC50 [1] | IC50 [2] | SMILES
3.3 nM | 248 nM | Cc1cc(C(N)=O)nc(N2C[C@H]3C[C@@H](c4ccccc4C(F)(F)F)C[C@H]3C2)n1
46.3 nM | 33.4 nM | Cc1cc(C(=O)O)nc(N2C[C@H]3C[C@@H](c4cc(F)ccc4C(F)(F)F)C[C@H]3C2)n1
196 nM |  | Cc1cc(C(=O)O)nc(N2C[C@H]3C[C@@H](c4cccc(F)c4C(F)(F)F)C[C@H]3C2)n1
532 nM | 347 nM | Cc1cc(C(=O)O)nc(N2C[C@H]3C[C@@H](c4cc(F)ccc4Cl)C[C@H]3C2)n1
137 nM | 504 nM | Cc1cc(C(=O)O)nc(N2C[C@H]3C[C@@H](c4cccc(F)c4Cl)C[C@H]3C2)n1
